Results as given in patent publication US10344065B2, “Method for treating Alzheimer's disease and method for downregulating protein aggregation in brain” (National Cheng Kung University, priority 2017, dated 2019).

Tests used:
[1] = tested on: WWOX; experiment: WWOX phosphorylation in melanoma-bearing nude mice; format: in vivo, mouse; conditions: B16F10-bearing nude mice, n=3
Description: FIG. 4 includes photos showing that Zfra suppresses melanoma B16F10-mediated neurodegeneration in the hippocampus. Nude mice were preinjected with 100 μL, of sterile Milli-Q water or Zfra4-10 (1 mM in sterile water) in 3 consecutive weeks. After treatment for a week, these mice were inoculated with melanoma B16F10 cells on both flanks (2×10^5 cells in 100-μL, PBS). Mice were sacrificed when the tumor sizes grew up to 2000-3000 mm^3 in about a month. (A) Zfra blocked neurodegeneration in the hippocampus (top panel) and prevented the formation of TPC6AΔ plaques in the cortex (bottom panel), which negatively correlates with pS14-WWOX expression. Note the presence of condensed apoptotic nuclei in the hippocampal neurons in the control mice, (B) Metastasis of B16F10 cells to the lung was blocked in Zfra-treated mice. Compared to controls, Zfra suppressed p-S14WWOX expression in the lung by ˜72% suppression (three sections). […] (C and D) The non-spatial learning and memory were determined by novel object recognition task for both 3×Tg and Wwox+/− mice. […] Also, see data in FIG. 1.
Six- to eight-week-old male nude (BALB/cAnN.Cg-Foxn1^nu/CrlNarl) mice (National Laboratory Animal Center, Taiwan) were used. Mice were intravenously injected into tail veins with 100 μL of Zfra1-31 or Zfra4-10 (2 mM), or sterile water. After injection for 1-8 weeks, mouse melanoma B16F10 or human glioma 13-06-MG cells (2-2.5×10^6 cells/100-μL saline) were then inoculated in subcutaneous sites at both flanks. Tumor volumes were measured daily and calculated using the equation, D×(d)^2/2, where D and d are the major and minor diameters, respectively. At indicated time point, mouse organs, including brain, lung, spleen, and liver, were harvested and fixed with 4% paraformaldehyde. IHC was carried out using indicated specific antibodies to determine protein expression in tissues and organs. Where indicated, TMR-Zfra was used to stain spleen, brain, and lung tissues. Z-cell distribution in organs was determined under fluorescence microscopy.

[2] = tested on: melanoma B16F10 cells; experiment: B16F10 metastasis to the lung in nude mice; format: in vivo, mouse
Description: (§1) FIG. 4 includes photos showing that Zfra suppresses melanoma B16F10-mediated neurodegeneration in the hippocampus. Nude mice were preinjected with 100 μL, of sterile Milli-Q water or Zfra4-10 (1 mM in sterile water) in 3 consecutive weeks. After treatment for a week, these mice were inoculated with melanoma B16F10 cells on both flanks (2×10^5 cells in 100-μL, PBS). Mice were sacrificed when the tumor sizes grew up to 2000-3000 mm^3 in about a month. (A) Zfra blocked neurodegeneration in the hippocampus (top panel) and prevented the formation of TPC6AΔ plaques in the cortex (bottom panel), which negatively correlates with pS14-WWOX expression. Note the presence of condensed apoptotic nuclei in the hippocampal neurons in the control mice, (B) Metastasis of B16F10 cells to the lung was blocked in Zfra-treated mice. Compared to controls, Zfra suppressed p-S14WWOX expression in the lung by ˜72% suppression (three sections). […] (C and D) The non-spatial learning and memory were determined by novel object recognition task for both 3×Tg and Wwox+/− mice. […]
(§2) Six- to eight-week-old male nude (BALB/cAnN.Cg-Foxn1^nu/CrlNarl) mice (National Laboratory Animal Center, Taiwan) were used. […] Tumor volumes were measured daily and calculated using the equation, D×(d)^2/2, where D and d are the major and minor diameters, respectively. […] Z-cell distribution in organs was determined under fluorescence microscopy.

[3] = tested on: TPC6AΔ peptides; experiment: Aggregation of serine-containing TPC6AΔ peptides in PBS; format: biochemical; conditions: 24 hours, room temperature
Description: FIG. 5 includes photos and diagrams showing that Zfra suppresses polymerization or aggregation of serine-containing TPC6AΔ and other peptides in PBS. Zfra4-10 was incubated with an indicated serine-containing peptide in PBS at room temperature for 24 hours (final 200 μM each peptide). The mixtures were subjected to nonreducing sodium dodecyl sulfate polyacrylamide gel electrophoresis (SDS-PAGE). (A) Full-length Zfra or red-fluorescent TMR-Zfra blocked aggregation of Aβ42 (lanes 3, 5, and 7). […] The membrane was stained with antibody against Aβ. (B) Zfra4-10 and one of the TPC6AΔ peptides were resuspended in Milli-Q water or PBS and incubated for 24 hours at room temperature. Zfra4-10 suppressed the polymerization of serine-containing peptides. Reduction in intensity=[1−(Z.P)/(Z+P)]×100%, where Z=Zfra4-10, P=an indicated peptide, and Z.P=peptide mixture. […] Zfra4-10 suppressed polymerization of these peptides in PBS.
Zfra and serine-containing peptides were synthesized by Genemed Synthesis (San Antonio, Tex., USA), (1) Zfra1-31, […] (SEQ ID NO: 2); (2) Zfra4-10, RRSSSCK (SEQ ID NO: 1); (3) WWOX7-21, AGLDDTDSEDELPPG (SEQ ID NO: 3); (4) pS14-WWOX7-21, AGLDDTDpSEDELPPG (SEQ ID NO: 4); (5). […]

[4] = tested on: pyramidal neurons in the hippocampi; experiment: Melanoma B16F10-induced neurodegeneration in nude mice; format: in vivo, mouse; conditions: hippocampi of nude mice pretreated 3 consecutive weeks via tail veins, then B16F10 inoculated
Description: as §1, §2

RRSSSCK [Zfra4-10, truncated zinc finger-like peptide, amino acids 4-10 of Zfra]
suppression of Ser14 phosphorylation of WWOX (pS14-WWOX) ([1]; brain (hippocampus)): 87±5%
suppression of Tyr33 phosphorylation in WWOX ([1]; brain): 2±6%
suppression of phosphorylation in Tyr33 in WWOX in the lung ([1]; lung): 5±3%
B16F10 metastasis to the lung [2]: blocked
aggregation of TPC6AΔ peptides (TPC6AΔ24-38, pS35-TPC6AΔ24-38, TPC6AΔ84-100) [3]: effectively blocked
apoptotic nuclei [4]: 0±1%
